# Values joined by “and” are separate entries in the source; they are usually repeats but may differ in a detail not shown here. Equal entries are not always repeated. “Also recorded” adds a separate entry of the source. Where two headings read alike, the source gives them in different places.
# Assays:
# Taq DNA polymerase [1] = biological target: T1, Taq DNA polymerase (Thermus aquaticus, UniProt P19821); conditions: DMSO in 10% concentration; cited from earlier work
# T1 construct: purchased MBI Fermentas
# Taq DNA polymerase [2] = biological target: T1, Taq DNA polymerase; experiment: Remaining activity of Taq polymerase after incubation at elevated temperatures; assay type: biochemical; conditions: for remaining Taq polymerase activity: 1M additive
# Method: THP(B), THP(A) or glycerol were added from 3M stock solutions (pH 8.8 at 25° C.). The reaction mixtures were overlaid with paraffin oil and incubated at 95° C. or 97° C. Aliquotes (7.5 μl) were taken for polymerase activity assay at different periods of time.
# animals = conditions: cited from earlier work
# mammalian cells = conditions: cited from earlier work
# [3] = system: 349 b.p. fragment (66.5% GC content) from Halobacterium marismortui genomic DNA; experiment: PCR with THP(B) using Taq DNA polymerase; assay type: biochemical
# Method: MgCl2 concentrations of 1.0 mM and 1.75 mM were used in the absence and presence of THP(B), respectively, added from a 3M stock solution (pH 8.8 at 25° C.). […] (primer extension).
# PCR reaction was performed by Taq DNA polymerase as described in Materials and Methods, section (vii), using as a template whole genomic DNA of Halobacterium marismortui (66.5% GC) and the 28-mer primers 1 and 2 described in section (i).
# calf thymus DNA (42% GC) = experiment: DNA melting (absorbance at 260 nm), calf thymus DNA; conditions: 62° C. in aqueous solution
# Method: (§1) DNA melting studies were conducted in a buffer (1 ml) containing 5.0 mM K2HPO4 and 0.1 mM Na2EDTA at pH 7.5. […] DNA samples were adjusted to O.D260=0.2 and incubated overnight at 37° C. before use, as previously described (Rees et al., 1993). […] The increase in absorbance at 260 nm was monitored in Hewlett Packard 9450A diode array spectrophotometer attached to a temperature programmer and controller. Both the sample and the reference cells were heated together at a rate of 0.5° C./min and the net absorbance was recorded after every 0.5° C. increase. The Tms were determined graphically from the midpoints of the absorbance versus temperature profile.
# [4] = system: DNAs of varying base compositions; experiment: DNA melting (absorbance at 260 nm), DNAs of varying base compositions
# Method: as §1
# [5] = system: [d(GCTTAAGC)]2 (SEQ ID NO:2); experiment: Thermal transition of short oligonucleotide by 1H NMR chemical shift; conditions: for Tm: DNA alone 48.0
# Method: (§2) ^1H NMR measurements were carried out on a Bruker AMX 400 NMR MHZ spectrometer at 400.13 MHZ (equipped with an Aspect 300 control). For the ^1H NMR measurements, 1.0 mM DNA oligonucleotides were dissolved in 0.5 ml phosphate buffer solution (pH 7.2) in D2O (20 mM, for [d(ATGCAT)]2 (SEQ ID NO:1) and 40 mM for [d([…])]2 (SEQ ID NO:2) containing 50 mM NaCl and 0.1 mM EDTA. The solutions were lyophilized and then redissolved in 0.5 ml D2O (99.96%), heated to 65 EC and gradually cooled to 5 EC, and then degassed with argon at room temperature.
# (§3) The thermal transitions of the short oligonucleotides [d(ATGCAT)]2 (SEQ ID NO:1) (FIG. 4A) and [d([…])]2 (SEQ ID NO:2) (FIG. 4B) were studied in the absence (open squares) and presence of 0.5M (open circles) and 1.0M (filled squares) THP(B). NMR chemical shift changes of the C4H5 proton of [d(ATGCAT)]2 (SEQ ID NO:1) and of the G1H8 proton of [d([…])]2 (SEQ ID NO:2) were measured as a function of increasing temperatures as described in Materials and Methods section (iii).
# [6] = system: [d(ATGCAT)]2 (SEQ ID NO:1); experiment: as above; conditions: for Tm: DNA alone 31.5
# Method: as §2, §3
# poly(dA-dT) = experiment: DNA melting (absorbance at 260 nm), poly(dA-dT)
# Method: as §1
# T7 DNA polymerase = T7 DNA polymerase (Escherichia phage T7, UniProt P00581); conditions: 40% formamide; cited from earlier work
# Taq polymerase = Taq polymerase (Thermus aquaticus, UniProt P19821); conditions: 95-97° C.; cited from earlier work
# Klenow DNA polymerase [7] = biological target: T2, Klenow DNA polymerase (Escherichia coli, UniProt P00582); experiment: Klenow DNA polymerase activity assay at 37° C.; assay type: biochemical; conditions: for effect on Klenow polymerase activity: 1.0M additive, separate experiment, data not shown; for effect on Klenow DNA polymerase activity: 5.0M L-proline, 37° C., 6.7, 10.0 and 15.0 mM MgCl2
# T2 construct: Klenow fragment of DNA polymerase I; purchased MBI Fermentas
# Method: (§4) Klenow fragment (0.1 units) was added to the microtubes with reaction mixture pre-heated to 37° C., and following 7.5 minutes incubation at 37° C. (a time-point within the region of linear kinetics determined in a separate experiment, not shown), the reaction microtubes were placed on ice, and the reaction was stopped by addition of 12 μl of 50 mM EDTA and then applied on strips of chromatographic paper (Whatman No. 3). Strips were washed three times by cold TCA 10%, dried and the radioactivity was counted.
# DNA = conditions: for each 10% increase in glycerol concentration; cited from earlier work
# [8] = system: 349 b.p. fragment (66.5% GC) from Halobacterium marismortui genomic DNA; conditions: PCR with 10-15 units Klenow, denaturation 70° C., FIG. 12
# [9] = system: 349 b.p. fragment (66.5% GC) from Halobacterium marismortui genomic DNA; conditions: 1.0M proline
# Method: PCR was performed in 25 μl reaction mixture containing 3 ng of Halobacterium marismortui genomic DNA template, 0.12 nM of each 28-mer oligonucleotide primers 3 and 4 described in section (i) above, 0.5 units of Taq DNA polymerase, 200 μM of each dNTP, in PCR buffer containing: 10 mM Tris-HCl (pH 8.8 at 25° C.), 50 mM KCl, 0.08% Nonidet P40. […] Reaction mixtures were preheated for 3 min at their respective denaturation temperatures, except for reactions performed at Td 95° C., that were preheated for 3 min at 94° C., and then subjected to 35 thermal cycles as follows: (I) 30 sec incubation at 91-95° C., as indicated in each experiment (denaturation step); (ii) 90 sec incubation at 55° C. (primer annealing step); and (iii) 60 sec incubation at 72° C. (primer extension).
# [10] = system: 349 b.p. fragment (66.5% GC) from Halobacterium marismortui genomic DNA; conditions: 4.0M proline
# Method: PCR was performed in 25 μl reaction mixture containing 250 ng of Halobacterium marismortui genomic DNA template, 0.12 nM of each 30-mer oligonucleotide primers 5 and 6 described in section (i) above, 0.3 μl of Klentaq1 and Pfu (or Vent) enzymes mixture, prepared as described (Barnes, 1994), 200 μM of each dNTP, in PCR buffer containing: 10 mM Tris-HCl (pH 8.3 at 25° C.) and 50 mM KCl. […] Reaction mixtures were preheated for 1 min at their respective denaturation temperatures, except for reactions performed at Td 95° C., that were preheated for 1 min at 94° C., and then subjected to 35 thermal cycles as follows: (I) 30 sec incubation at 72-95° C., as indicated in each experiment (denaturation step); (ii) 90 sec incubation at 37-55° C., as indicated in each experiment (primer annealing step); and (iii) 7 min incubation at 63-69° C., as indicated in each experiment (primer extension).
# Reaction mixtures were preheated for 1 min at their respective denaturation temperatures (77° C. and 75° C.), and then subjected to 35 thermal cycles as follows: (i) 30 sec incubation at 77° C. or 75° C. (denaturation step); (ii) 90 sec incubation at 44° C. (primer annealing step); and (iii) 7 min incubation at 65° C. (primer extension).
# Klenow DNA polymerase [11] = biological target: T2, Klenow DNA polymerase; experiment: Remaining activity of Klenow DNA polymerase after incubation at 65° C.; assay type: biochemical; conditions: 5M proline
# Method: as §4
# The microtubes were vortexed and Klenow enzyme was added to the samples. The Klenow DNA polymerase activity assay was performed as described in section (iv) above at 6.7 mM concentration of MgCl2. To each aliquot (5 μl) 20 μl of stock solution containing all other components of the assay were added, making a total reaction volume of 25 μl and a 5-fold dilution of the aliquots.
# [12] = system: Micrococcus lysodeikticus DNA (72% GC); conditions: 6.2M proline
# Method: as §1
# [13] = 30 min incubation at 97° C., 10% without additives
# [14] = 60 min incubation at 97° C., 5% or less without additives
# T2 sequence (P00582 324-928): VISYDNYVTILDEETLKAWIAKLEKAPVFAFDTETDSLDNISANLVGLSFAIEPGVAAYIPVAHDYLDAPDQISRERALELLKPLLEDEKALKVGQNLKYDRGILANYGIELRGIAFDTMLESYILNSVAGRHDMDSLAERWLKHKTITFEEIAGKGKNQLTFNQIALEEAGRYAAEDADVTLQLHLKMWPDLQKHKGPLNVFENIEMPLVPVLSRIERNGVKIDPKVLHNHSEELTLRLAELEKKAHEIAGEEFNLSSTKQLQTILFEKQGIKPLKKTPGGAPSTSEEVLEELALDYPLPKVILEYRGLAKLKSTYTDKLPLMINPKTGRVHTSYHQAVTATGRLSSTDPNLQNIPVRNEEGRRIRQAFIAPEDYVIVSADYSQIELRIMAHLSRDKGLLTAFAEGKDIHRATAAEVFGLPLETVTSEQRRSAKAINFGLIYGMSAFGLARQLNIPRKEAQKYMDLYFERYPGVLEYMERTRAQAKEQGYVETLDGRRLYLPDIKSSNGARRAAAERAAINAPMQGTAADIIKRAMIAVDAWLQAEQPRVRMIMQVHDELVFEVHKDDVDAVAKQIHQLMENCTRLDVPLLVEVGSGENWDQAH
# T1 sequence (P19821 whole entry): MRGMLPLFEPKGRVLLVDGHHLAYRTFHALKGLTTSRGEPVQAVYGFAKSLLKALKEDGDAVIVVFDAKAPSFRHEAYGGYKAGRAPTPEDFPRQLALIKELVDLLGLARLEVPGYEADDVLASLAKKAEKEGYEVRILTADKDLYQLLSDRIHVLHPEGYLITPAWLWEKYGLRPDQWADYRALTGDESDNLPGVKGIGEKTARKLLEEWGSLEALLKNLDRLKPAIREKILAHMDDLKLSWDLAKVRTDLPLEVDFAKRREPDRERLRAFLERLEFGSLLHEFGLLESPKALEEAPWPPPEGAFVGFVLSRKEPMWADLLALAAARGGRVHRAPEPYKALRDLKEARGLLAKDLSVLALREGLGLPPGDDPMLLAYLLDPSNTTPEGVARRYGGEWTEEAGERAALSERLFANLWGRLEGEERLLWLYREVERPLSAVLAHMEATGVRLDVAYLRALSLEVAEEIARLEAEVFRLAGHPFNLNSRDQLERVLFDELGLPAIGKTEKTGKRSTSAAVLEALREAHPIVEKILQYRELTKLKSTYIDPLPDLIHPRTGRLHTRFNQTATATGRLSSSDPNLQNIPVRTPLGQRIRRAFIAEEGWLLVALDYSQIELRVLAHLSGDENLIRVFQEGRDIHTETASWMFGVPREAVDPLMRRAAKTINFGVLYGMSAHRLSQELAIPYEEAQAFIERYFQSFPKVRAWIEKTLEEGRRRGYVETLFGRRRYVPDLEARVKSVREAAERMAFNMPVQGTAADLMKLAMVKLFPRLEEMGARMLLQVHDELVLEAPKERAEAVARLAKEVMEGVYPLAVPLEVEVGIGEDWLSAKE
# T7 DNA polymerase, sequence (P0AA25 2-109): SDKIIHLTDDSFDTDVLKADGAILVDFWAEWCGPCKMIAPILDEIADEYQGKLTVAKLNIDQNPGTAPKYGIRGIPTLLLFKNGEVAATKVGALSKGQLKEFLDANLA
# T7 DNA polymerase, sequence (P00581 whole entry): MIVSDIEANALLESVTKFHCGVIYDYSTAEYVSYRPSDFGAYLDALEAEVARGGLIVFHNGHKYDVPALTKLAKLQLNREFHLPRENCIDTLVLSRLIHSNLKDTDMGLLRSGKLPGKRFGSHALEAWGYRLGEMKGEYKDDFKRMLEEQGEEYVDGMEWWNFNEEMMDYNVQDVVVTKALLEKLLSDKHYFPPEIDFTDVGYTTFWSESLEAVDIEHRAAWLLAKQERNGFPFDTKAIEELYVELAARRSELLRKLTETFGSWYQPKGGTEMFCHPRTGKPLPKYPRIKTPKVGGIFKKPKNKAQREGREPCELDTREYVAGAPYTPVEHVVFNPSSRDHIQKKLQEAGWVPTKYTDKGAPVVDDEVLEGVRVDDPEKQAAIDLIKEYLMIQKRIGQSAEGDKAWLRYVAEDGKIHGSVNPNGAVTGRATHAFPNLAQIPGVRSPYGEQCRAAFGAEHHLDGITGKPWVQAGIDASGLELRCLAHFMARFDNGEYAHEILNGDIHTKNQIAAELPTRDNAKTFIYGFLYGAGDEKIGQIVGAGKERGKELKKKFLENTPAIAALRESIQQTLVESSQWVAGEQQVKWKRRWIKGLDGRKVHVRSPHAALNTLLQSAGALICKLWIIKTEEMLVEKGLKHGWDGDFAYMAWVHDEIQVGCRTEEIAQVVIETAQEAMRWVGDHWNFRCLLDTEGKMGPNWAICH
# Taq polymerase, sequence (P19821 whole entry): as the sequence (P19821 whole entry) above
smiles,measurement,setting,value
C[S+](C)[O-] [DMSO],inhibition of Taq DNA polymerase activity,Taq DNA polymerase [1],53%
"CC1=NCC(O)C(C(=O)O)N1 (stereo not shown) [THP(A), 2-methyl-4-carboxy-5-hydroxy-3,4,5,6-tetrahydropyrimidine]",effectiveness in stabilizing Taq DNA polymerase (comparison),"Taq DNA polymerase [2]; 97° C., 1M additives, FIG. 5",more effective than THP(B) or glycerol
same,remaining Taq polymerase activity,Taq DNA polymerase [2]; [13],50% and 55%
same,remaining Taq activity relative to no additives,Taq DNA polymerase [2]; 60 min incubation at 97° C.,10 fold
same,remaining Taq polymerase activity,Taq DNA polymerase [2]; [14],45% and 55%
same,toxicity,animals; animals,not toxic
same,toxicity,mammalian cells; mammalian cells,not toxic
"CC1=NCCC(C(=O)O)N1 (stereo not shown) [THP(B), 2-methyl-4-carboxy-3,4,5,6-tetrahydropyrimidine]",remaining Taq polymerase activity,Taq DNA polymerase [2]; [13],40%
same,remaining Taq polymerase activity,Taq DNA polymerase [2]; [14],20%
same,PCR amplification,"[3]; 0.5M THP(B), Td 92° C.",amplified sequences were produced only in the presence of THP(B)
same,yield and specificity of DNA amplification,"[3]; 0.5M THP(B), Td 95° C. and 92° C.",improved
same,PCR amplification,"[3]; 1.0M THP(B), Td 89° C., 0.5 units Taq",markedly lower
same,PCR amplification,"[3]; 1.0M THP(B), Td 90° C., 0.5 or 0.75 units Taq",specific amplified sequence was generated only in the presence of THP(B)
same,PCR amplification,"[3]; 1.0M THP(B), Td 95° C.",improved PCR specific amplification
same,DNA melting temperature,calf thymus DNA (42% GC); 3 or 4M THP(B),41 °C
same,temperature range in which all DNAs melt,"[4]; 4M THP(B), 39 to 75° C. in its absence",40-43 °C
same,decrease of melting temperature,[5]; 0.5M additive,3 EC
same,Tm,[5]; 0.5 M additive,45.0 °C
same,decrease of melting temperature,[5]; 1.0M additive,6 EC
same,Tm,[5]; 1.0 M additive,42.0 °C
same,decrease of melting temperature,[6]; 0.5M additive,2 EC
same,Tm,[6]; 0.5 M additive,29.5 °C
same,decrease of melting temperature,[6]; 1.0M additive,3.5 EC
same,Tm,[6]; 1.0 M additive,28.0 °C
same,toxicity,animals; in vivo,not toxic
same,change in melting temperature of poly(dA-dT),poly(dA-dT); 1-4M THP(B),did not exhibit any change; also recorded: no change
same,toxicity,mammalian cells,not toxic
"C[N+](C)(C)CC(=O)O [betaine, Betaine, reference compound]",decrease of melting temperature,[5]; 1.0M additive,−2 EC
same,Tm,[6]; 1.0 M additive,29.2 °C
NC=O [formamide],T7 DNA polymerase activity,T7 DNA polymerase,completely inactive
OCC(O)CO [glycerol],thermal stability of Taq polymerase,Taq polymerase,doubling
same,effect on Klenow polymerase activity,Klenow DNA polymerase [7],stimulative
same,lowering of DNA melting temperatures,DNA,2.5-3 °C
"O=C(O)[C@@H]1CCCN1 [proline, L-Proline]",proline concentration sufficient to confer stability to Klenow polymerase (and conduct successful PCR),[8],3-5.5 M
same,PCR performance,[9]; denaturation temperature 91° C.,enabled successful PCR
same,PCR performance,[9]; denaturation temperature 95° C.,did not impair PCR performance
same,PCR performance,[10]; denaturation temperature 75° C.,but not at 75 °C
same,PCR performance,[10]; denaturation temperature 77° C.,enough for successful PCR
same,DNA melting temperature,calf thymus DNA (42% GC); 6.2M proline,27 °C
same,temperature range in which all DNAs melt,"[4]; 6.2M proline, 38 to 78° C. in its absence",25-32 °C
same,Tm values of the tested natural DNAs,"[4]; 6.2 M proline, 57-78° C. without",28-32 °C
same,effect on Klenow polymerase activity,Klenow DNA polymerase [7],stimulative
same,effect on Klenow DNA polymerase activity,Klenow DNA polymerase [7]; listed as L-proline,only slightly decreased
same,effect on Klenow DNA polymerase activity,Klenow DNA polymerase [7]; listed as Proline,only slightly decrease
same,half life of Klenow DNA polymerase relative to no additive,Klenow DNA polymerase [11],30-50 fold
same,range of melting higher than DNAs of GC content 42% and 26%,[12],about 5 °C
same,change in melting temperature of poly(dA-dT),poly(dA-dT); 1-5M proline,did not exhibit any change
same,change in melting temperature of poly(dA-dT),poly(dA-dT); 5-6.2M proline,small effect
same,melting lower than DNAs of GC content 42% and 26%,poly(dA-dT); 6.2M proline,about 15 °C

# From patent US7387878B2, “Methods for DNA amplification and sequencing” (Yeda Research and Development Co. Ltd., priority 1998, dated 2008)
